Square brackets hold non-standard residues; d marks the D form. Peptide text beside a SMILES is read from it. dTrp(2-Me) = Cc1[nH]c2ccccc2c1C[C@@H](N)C(=O)O
How the values were obtained:
growth hormone secretion = experiment: Growth hormone secretion in young healthy male volunteers; format: in vivo, human; details: young (20-30 years old) healthy male volunteers, various dosages
Procedure: The effects of HEXARELIN on growth hormone secretion in young (20-30 years old) healthy male volunteers were measured after the administration of various dosages.

[1] = system: pituitary cell monolayers; experiment: GH-releasing activity in pituitary cell culture (monolayers); format: cell-based, Sprague Dawley rats; details: for GH in medium: 2 hours incubation
Procedure: (§1) Male Sprague Dawley rats (Charles River, Calco, Italy) of 2-3 months of age were used. Rats were housed at 22 +2° C., with lighting cycle of 14 h light: 10 h dark (lights on from 06.00 to 20.00 h), at least 10 days before starting the experiments. A standard dry diet and water were available ad libitum.
Pituitary tissue used for cell dissociation included only the anterior lobe. Briefly, pituitary glands were collected in sterile F-10 medium and after cutting into small fragments incubated twice (30 minutes each) at 37° C. in F-10 medium containing 6% fetal calf serum and collagenase (2.5 mg/ml) (Boehringer, Mannheim GmbH, Germany). Fragments were then washed in Dulbecco's PBS, Ca^2+ and Mg^2+ free medium and mechanically dissociated. Single cell suspension was planted onto 24-well (2×10^5 cells/well) culture plates. The cells were incubated in F-10 medium supplemented with 10% horse serum, 4% fetal calf serum and gentamycin (25 μg/ml), in a humidified atmosphere of 5% CO2 and 95% air at 37° C.
After 3 days, the medium was removed and the cells washed twice with serum free F-10, then incubated with 1 ml of F-10 containing 0.1% BSA only, or with added various concentrations of synthetic peptides.
After incubation for 2 h at 37° C., media were collected and stored frozen at -20° C. until assayed for measurement of GH content.
(§2) Medium and plasma GH was measured by radioimmunoassay using materials supplied by the NIADDK Bethesda, Md. Values were expressed in term of NIASSK-rat-GH-RP-2 standard (potency 2 IU/ml), as ng/ml of medium or plasma.
(§3) The minimum detectable value of rat was 1.0 ng/ml; intra-assay variability was 6%. To avoid inter-assay variation, samples from each experiment were assayed simultaneously.

GH release [2] = experiment: GH release in pentobarbital-anesthetized rats, s.c.; format: in vivo, Sprague Dawley rats
Procedure: Male Sprague Dawley rats weighing 225-250 g were divided in groups of five animals each. Rats were anesthetized with Nembutal injected intraperiteonally at 50 mg/kg, fifteen minutes prior to the first blood withdrawal taken over heparin by cardiac puncture (for determination of basal GH).
Subcutaneous injections of either HEXARELIN or GHRP-6 were given immediately after the first blood collection, and additional blood samples were collected 15 and 40 minutes later.
Measurement of rat GH was performed by a standard double antibody radioimmunoassay with reagents supplied by the National Pituitary Agency and the National Institute of Arthritis, Diabetes, and Digestive and Kidney Diseases. The standards used were NIADDK-NIH-rGH-RP-2. Statistical data were obtained with the Student's t Test at a significance level of 5%.

GH release [3] = experiment: GH-releasing activity s.c. in male rats anesthetized with ketamine and xilazine; format: in vivo, Sprague Dawley rats
Procedure: as §1
(§4) Between 09.00-10.00 h rats were anesthetized with ketamine (58 mg/kg, Inoketam, VIRBAC, Milano) and xilazine (12 mg/kg, Rompun, Bayer, Milano). Thirty minutes later, a blood sample ([…]) was withdrawn from the exposed jugular vein, peptides were injected intravenously or subcutaneously, and further blood samples were collected 10, 20 and 30 minutes later.
as §2, §3

[4] = Hydrophobicity comparison (FIG. 12); format: physicochemical
[5] = Acute cardiovascular toxicity in the rat, single i.v. dose, mortality; format: in vivo; details: for Dead rats/Total N° of rats per group: observed up to 4 hours
Procedure: These two peptides were also tested for acute cardiovascular toxicity in the rat.
Dosages were calculated on the basis of the declared peptide content in each product, as specified below:
A single dose of HEXARELIN or GHRP-6 was administered to rats in different calendar dates in such a way that each group/dose should be treated in two subsequent days.
For each compound, appropriate amounts of solutions in 0.9% NaCl for injection were prepared just before treatment at the suitable concentrations. The solutions were sterilized by filtration (Millipore filter, pore size 0.22 μm). Owing to the type of the study (acute study) in which formulates were administered just after preparation, stability checks were not performed. Concentration checks were also not performed. The volume of solution injected was maintained constant at 1 ml/Kg.
The intravenous injections were done as a single dose in one vein of the tail with an appropriately gauged sterile, disposable, plastic syringe. The injection rate was about 0.1 ml/sec.
Periodical observations were made up to 4 hours after treatment. Abnormality and mortality were recorded. Body weight was recorded once during pre-trial and on the administration day to calculate the volumes to be injected.

GH release [6] = experiment: GH-releasing activity i.v. in male rats anesthetized with ketamine and xilazine; format: in vivo, Sprague Dawley rats
Procedure: as §1, §4, §2, §3

Growth Hormone release = experiment: GH release in 10-day old rats after subcutaneous injection; format: in vivo; details: s.c. 160 μg/kg
Procedure: The peptides of Examples 4 and 5 were tested as Growth Hormone releasers in rats. GH released in a series of seven 10-day old rats, injected subcutaneously with a standard dose of 160 μg/kg and sacrificed 15 minutes after the injection.

Cc1[nH]c2ccccc2c1C[C@@H](NC(=O)[C@@H](N)Cc1cnc[nH]1)C(=O)N[C@@H](C)C(=O)N[C@@H](Cc1c[nH]c2ccccc12)C(=O)N[C@H](Cc1ccccc1)C(=O)N[C@@H](CCCCN)C(N)=O [Example 4, His-D-2-methyl-Trp-Ala-Trp-D-Phe-Lys-NH2] (H-H[dTrp(2-Me)]AW[dF]K-NH2)
effect on growth hormone secretion (growth hormone secretion): effective in vivo | GH in medium ([1]; 10^-6 M): 558.0 ± 19.1 ng/well | GH in medium ([1]; 10^-7 M): 589.1 ± 17.9 ng/well | GH in medium ([1]; 10^-8 M): 557.8 ± 15.9 ng/well | GH secretion versus basal ([1]; 10^-8 to 10^-6 M, two hours): stimulation of GH secretion over basal secretion | POST-DRUG PLASMA GH (GH release [2]; s.c. 10 μg/kg, 0 min (basal)): 63 ± 58 ng/mL | POST-DRUG PLASMA GH (GH release [2]; s.c. 10 μg/kg, 15 min): 95 ± 44 ng/mL | POST-DRUG PLASMA GH (GH release [2]; s.c. 10 μg/kg, 40 min): 88 ± 29 ng/mL | POST-DRUG PLASMA GH (GH release [2]; s.c. 25 μg/kg, 0 min (basal)): 56 ± 21 ng/mL | POST-DRUG PLASMA GH (GH release [2]; s.c. 25 μg/kg, 15 min): 388 ± 99 ng/mL | POST-DRUG PLASMA GH (GH release [2]; s.c. 25 μg/kg, 40 min): 100 ± 51 ng/mL | POST-DRUG PLASMA GH (GH release [2]; s.c. 50 μg/kg, 0 min (basal)): 32 ± 16 ng/mL | POST-DRUG PLASMA GH (GH release [2]; s.c. 50 μg/kg, 15 min): 439 ± 69 ng/mL | POST-DRUG PLASMA GH (GH release [2]; s.c. 50 μg/kg, 40 min): 81 ± 13 ng/mL | plasma GH (GH release [3]; s.c. 150 μg/kg, 10 min): 107.1 ± 17.7 ng/mL | plasma GH (GH release [3]; s.c. 150 μg/kg, 20 min): 156.6 ± 18.7 ng/mL | plasma GH (GH release [3]; s.c. 150 μg/kg, 30 min): 86.0 ± 18.9 ng/mL | plasma GH (GH release [3]; s.c. 150 μg/kg, time 0 min (before injection)): 12.0 ± 4.0 ng/mL | plasma GH (GH release [3]; s.c. 300 μg/kg, 10 min): 80.6 ± 11.0 ng/mL | plasma GH (GH release [3]; s.c. 300 μg/kg, 20 min): 171.7 ± 22.0 ng/mL | plasma GH (GH release [3]; s.c. 300 μg/kg, 30 min): 102.7 ± 17.0 ng/mL | plasma GH (GH release [3]; s.c. 300 μg/kg, time 0 min (before injection)): 12.0 ± 4.0 ng/mL | plasma GH (GH release [3]; s.c. 600 μg/kg, 10 min): 90.7 ± 16.6 ng/mL | plasma GH (GH release [3]; s.c. 600 μg/kg, 20 min): 187.5 ± 15.4 ng/mL | plasma GH (GH release [3]; s.c. 600 μg/kg, 30 min): 115.3 ± 19.1 ng/mL | plasma GH (GH release [3]; s.c. 600 μg/kg, time 0 min (before injection)): 23.0 ± 6.0 ng/mL | effect on plasma GH, comparison with GHRP-6 (GH release [3]; s.c. 150, 300 and 600 μg/kg, 10, 20 and 30 minutes): more effective than GHRP-6 at all the considered times | hydrophobicity compared with GHRP-6 [4]: greater hydrophobicity than GHRP-6 | Dead rats/Total N° of rats per group ([5]; single i.v. dose 5.0 mg/kg): 0/6 | Dead rats/Total N° of rats per group ([5]; single i.v. dose 7.5 mg/kg): 1/6 | Dead rats/Total N° of rats per group ([5]; single i.v. dose 10 mg/kg): 2/6 | toxicity compared with GHRP-6 ([5]; single i.v. dose, mortality): less toxic than GHRP-6 | plasma GH (GH release [6]; i.v. 150 μg/kg, 10 min): 412.7 ± 39.7 ng/mL | plasma GH (GH release [6]; i.v. 150 μg/kg, 20 min): 132.2 ± 12.7 ng/mL | plasma GH (GH release [6]; i.v. 150 μg/kg, 30 min): 44.0 ± 6.0 ng/mL | plasma GH (GH release [6]; i.v. 150 μg/kg, time 0 min (before injection)): 15.0 ± 2.9 ng/mL | plasma GH (GH release [6]; i.v. 300 μg/kg, 10 min): 438.5 ± 26.8 ng/mL | plasma GH (GH release [6]; i.v. 300 μg/kg, 20 min): 213.8 ± 34.2 ng/mL | plasma GH (GH release [6]; i.v. 300 μg/kg, 30 min): 48.1 ± 8.8 ng/mL | plasma GH (GH release [6]; i.v. 300 μg/kg, time 0 min (before injection)): 13.5 ± 2.0 ng/mL | plasma GH (GH release [6]; i.v. 600 μg/kg, 10 min): 478.3 ± 19.8 ng/mL | plasma GH (GH release [6]; i.v. 600 μg/kg, 20 min): 164.2 ± 13.2 ng/mL | plasma GH (GH release [6]; i.v. 600 μg/kg, 30 min): 54.5 ± 13.3 ng/mL | plasma GH (GH release [6]; i.v. 600 μg/kg, time 0 min (before injection)): 18.4 ± 4.3 ng/mL | effect on plasma GH concentrations (GH release [6]; i.v. 150, 300 and 600 μg/kg, 10 and 20 minutes after administration): significant increases | activity as Growth Hormone releaser (Growth Hormone release): very active | GH (Growth Hormone release; sacrificed 15 minutes after injection): 201 ng/mL
